Laboratory results: patent US20260250257A1, “ANTIBACTERIAL AND SYNERGISTIC ACTIVE COMPOUND AND USE THEREOF” (EAST CHINA UNIVERSITY OF SCIENCE AND TECHNOLOGY, priority 2023, published 2026)
Values after ≈ are worked out from the molar mass of the structure shown.

Experiments:
Assay type in all cases: cell-based
[1] = system: ATCC13883 strain (Klebsiella pneumoniae); test: Checkerboard antibacterial synergistic activity test with polymyxin E (FIC); set-up: key: FIC≤0.5 synergy; 0.5–1 additive; 1–2 indifferent; ≥2 antagonism; details: combined with polymyxin E
Description: (§1) Polymyxin E was diluted in sterile MH broth medium to concentrations of 16, 8, 4, 2, 1, 0.5, 0.25, 0.125, 0.0625, 0.031, and 0.015 μg/ml, and the drug to be tested was diluted to concentrations of 256, 128, 64, 32, 16, 8, and 4 μg/ml. According to the checkerboard method, combinations of the drug to be tested and polymyxin at different concentrations in ascending order were placed into a 96-well plate, and corresponding blank control groups were set up. 50 μl of the drug solution was added to each well, then 100 μl of bacterial liquid was added, and incubated in a 37° C. incubator for 16 hours. […] Calculation and judgment criteria:
(§2) Fractional Inhibitory Concentration (FIC) is calculated as follows: […]
(§3) Judgment criteria: FIC≤0.5: synergistic effect; 0.5<FIC<1: additive effect; 1<FIC<2: indifferent effect; FIC≥2: antagonistic effect.
(§4) In the table: ATCC19606 strain is Acinetobacter baumannii, ATCC25922 strain is Escherichia coli, ATCC13883 strain is Klebsiella pneumoniae, ATCC9027 strain is Pseudomonas aeruginosa. All four strains were purchased from ATCC.

[2] = system: ATCC19606 strain (Acinetobacter baumannii); test: as above; set-up: key: FIC≤0.5 synergy; 0.5–1 additive; 1–2 indifferent; ≥2 antagonism; details: combined with polymyxin E
Description: as §1, §2, §3, §4

[3] = system: ATCC25922 strain (Escherichia coli); test: as above; set-up: key: FIC≤0.5 synergy; 0.5–1 additive; 1–2 indifferent; ≥2 antagonism; details: combined with polymyxin E
Description: as §1, §2, §3, §4

[4] = system: ATCC9027 strain (Pseudomonas aeruginosa); test: as above; set-up: key: FIC≤0.5 synergy; 0.5–1 additive; 1–2 indifferent; ≥2 antagonism; details: combined with polymyxin E
Description: as §1, §2, §3, §4

[5] = system: ATCC13883 strain (Klebsiella pneumoniae); test: Broth microdilution, antibacterial activity of the compound used alone
Text: (§5) The broth microdilution method was used to test the antibacterial effects of the compounds of the present invention against various Gram-negative bacterial strains when used alone.

[6] = system: ATCC19606 strain (Acinetobacter baumannii); test: as above
Text: as §5

[7] = system: ATCC25922 strain (Escherichia coli); test: as above
Text: as §5

[8] = system: ATCC9027 strain (Pseudomonas aeruginosa); test: as above
Text: as §5

SMILES	Synergistic activity (FIC value) ATCC13883 [1]	Synergistic activity (FIC value) ATCC19606 [2]	Synergistic activity (FIC value) ATCC25922 [3]	Synergistic activity (FIC value) ATCC9027 [4]	Antibacterial activity of the compound of Formula I, ATCC13883 [5] [µg/mL]	Antibacterial activity of the compound of Formula I, ATCC19606 [6] [µg/mL]	Antibacterial activity of the compound of Formula I, ATCC25922 [7] [µg/mL]	Antibacterial activity of the compound of Formula I, ATCC9027 [8] [µg/mL]	MIC ([5]; read-out: Antibacterial activity of the compound of Formula I, ATCC13883) [µg/mL]	MIC ([6]; read-out: Antibacterial activity of the compound of Formula I, ATCC19606) [µg/mL]	MIC ([7]; read-out: Antibacterial activity of the compound of Formula I, ATCC25922) [µg/mL]	MIC ([8]; read-out: Antibacterial activity of the compound of Formula I, ATCC9027) [µg/mL]
NC(N)=Nc1nc(-c2cc(Cl)cc(Oc3ccc(Cl)cc3Cl)c2)cs1 [Compound I-99]	0.16	0.03	0.18	0.28	256	256	256	256				
Cc1sc(N=C(N)N)nc1-c1cccc(S(C)(=O)=O)c1-c1ccccn1 [Compound I-76]	0.63	0.75	0.5	0.56	256	256	256	256				
CC(C)c1ccc(-c2csc(N=C(N)N)n2)cc1 [Compound I-17]	0.25	0.28	0.5	0.63	256	256	256	256				
CC(C)(C)c1cc(-c2csc(N=C(N)N)n2)cc(C(C)(C)C)c1 [Compound I-13]	0.33	0.15	0.39	0.62	256	256	256	256				
NC(N)=Nc1nc(-c2ccc(Oc3ccccc3)cc2)cs1 [Compound I-3]	1.25	1.25	0.5	1.25	256	256	256	256				
NC(N)=Nc1nc(-c2ccccc2Oc2ccccc2I)cs1 [Compound I-86]	0.19	0.38	0.04	0.04					256 (≈ 587 µM)	256 (≈ 587 µM)	256 (≈ 587 µM)	256 (≈ 587 µM)
NC(N)=Nc1nc(-c2cc(Cl)cc(Cl)c2)cs1 [Compound I-39]	1.25	0.75	1.25	1.25	128	256	128	64				
NC(N)=Nc1nc(-c2cc(I)cc(I)c2)c[se]1 [Compound I-34]	1.25	0.75	1.25	1.25	256	256	256	256				
Cc1cccc2cccc(-c3csc(N=C(N)N)n3)c12 [Compound I-57]	0.25	0.3	0.5	0.63	256	256	256	256				
COc1cccc(-c2csc(N=C(N)N)n2)c1 [Compound I-5]	1.25	1.25	1.25	1.25	256	256	256	256				
CC(C)(C)c1cccc(-c2c[se]c(N=C(N)N)n2)c1 [Compound I-11]	0.25	0.3	0.5	0.63	256	256	256	256				
COc1ccc(Oc2ccccc2-c2csc(N=C3NCCCN3)n2)c(OC)c1 [Compound I-149]	0.16	0.03	0.18	0.28	256	256	256	256				
Cc1ccc(NC(=O)Nc2cccc(-c3c[nH]c(N=C4NCCCN4)n3)c2)c(C)c1 [Compound I-199]	0.51	0.16	0.51	0.75	256	256	256	256				
Ic1cccc(-c2csc(N=C3NCCCN3)n2)c1 [Compound I-180]	1.25	0.26	1.25	1.25	256	256	256	256				
